Key:
migraine = conditions: cited from earlier work
migraine headache = assay: Individual case reports, acute sublingual treatment of migraine headache (Examples 1-8, 10); assay type: in vivo, human; conditions: single subject
Method: A person in otherwise good health had suffered for years with consistently recurring migraine headaches, frequency approximately 1–3 times per month, average duration 4–12 hours, which headaches had proven refractory to standard pharmacological treatment. These migraine headaches were often accompanied by nausea, and infrequently by vomiting. Each occurrence of migraine headache rendered the individual unable to participate in the normal activities of daily living, both socially and professionally. Absenteeism from work and missed social engagements resulted from their frequent need to ensconce themself in a darkened, quiet room where they would ‘wait out’ the headache. The frequency and unpredictability of the migraine headaches caused substantial impairment even between events, this impairment associated with anxiety and the inability to plan any event with confidence. This individual used the present invention in a two (2) part sublingual administration regimen, wherein a first composition is administered sublingually, and allowed to reside under the tongue for a period of about sixty (60) seconds. A second identical composition is administered, following the start of administration of the first composition by approximately five (5) minutes. […]

[1] = 5 mg, placebo-controlled 2-attack study
[2] = doses > or = 2.5 mg, Rapoport 1997

| Structure (SMILES) | pain free at 2 hours postdose (migraine; 5 mg) | pain-free response at 1 hour postdose (migraine; 5 mg) | sustained pain-free response at 24 hours (migraine; 5 mg) | headache response at 30 minutes (migraine; [1]) | headache response at 2 hours (migraine; [1]) | 1 Hour headache response (migraine; Table 2, literature values) | 2 Hour complete headache response (migraine; Table 2, literature values) | 2 Hour headache response (migraine; Table 2, literature values) | 2 hour pain free (migraine; Table 2, literature values) | 2 hour sustained pain free (migraine; Table 2, literature values) [%^9] | headache response rate at 1 hour (migraine; [2]) [%] | headache response rate at 2 hours (migraine; [2]) [%] | subject-reported side effects (migraine headache) | subject-reported relief of migraine headache and associated symptoms (migraine headache; two part sublingual regimen) |
| --- | --- | --- | --- | --- | --- | --- | --- | --- | --- | --- | --- | --- | --- | --- |
| CN(C)CCc1c[nH]c2ccc(C[C@H]3COC(=O)N3)cc12 [Zolmitriptan] | 31.1 % of attacks | 10.6 % of attacks | ^9Among attacks treated with ZOMIG-ZMT 5 mg, a sustained pain-free response at 24 hours was achieved in 22.2% of attacks compared to 8.2% for placebo (P < .0001)^1 also unpublished data, see same web address as for #5 | 16.5 % of attacks | 59 % of attacks | 44%^1 | 40–45%^6,7 | 66%^2,3,4 | 27–33%^8 | 31 | 44 to 51 | 65 to 67 |  |  |
| CNS(=O)(=O)Cc1ccc2[nH]cc(CCN(C)C)c2c1 [Sumatriptan] |  |  |  |  |  | 20% | 36% | 59% | 29% |  |  |  | “weakness” and “exhaustion” | moderate success |

Source: patent US7192614B2, “Compositions and methods of treatment to alleviate or prevent migrainous headaches and their associated symptoms” (GelStat Corporation, priority 2002, dated 2007)
